According to patent US20060223837A1 (priority 2005, published 2006):
Each block holds one molecule with its values, some of them ahead of it.

Key:
human VR1 [1] = target: T1, human VR1 (Homo sapiens, UniProt Q8NER1); test: Human VR1 [3H]RTX binding assay; conditions: for Ki: [3H]RTX binding, HEK293 membranes; for h Binding % I (1 μM) / inhibition at 1 µM: inhibition of [3H]RTX binding at 1 μM; for inhibition at 1 µM: read-out: h Binding % I (1 μM)
T1 construct: expressed in transfected cells; host or cells: HEK293
T1 sequence (Q8NER1 whole entry): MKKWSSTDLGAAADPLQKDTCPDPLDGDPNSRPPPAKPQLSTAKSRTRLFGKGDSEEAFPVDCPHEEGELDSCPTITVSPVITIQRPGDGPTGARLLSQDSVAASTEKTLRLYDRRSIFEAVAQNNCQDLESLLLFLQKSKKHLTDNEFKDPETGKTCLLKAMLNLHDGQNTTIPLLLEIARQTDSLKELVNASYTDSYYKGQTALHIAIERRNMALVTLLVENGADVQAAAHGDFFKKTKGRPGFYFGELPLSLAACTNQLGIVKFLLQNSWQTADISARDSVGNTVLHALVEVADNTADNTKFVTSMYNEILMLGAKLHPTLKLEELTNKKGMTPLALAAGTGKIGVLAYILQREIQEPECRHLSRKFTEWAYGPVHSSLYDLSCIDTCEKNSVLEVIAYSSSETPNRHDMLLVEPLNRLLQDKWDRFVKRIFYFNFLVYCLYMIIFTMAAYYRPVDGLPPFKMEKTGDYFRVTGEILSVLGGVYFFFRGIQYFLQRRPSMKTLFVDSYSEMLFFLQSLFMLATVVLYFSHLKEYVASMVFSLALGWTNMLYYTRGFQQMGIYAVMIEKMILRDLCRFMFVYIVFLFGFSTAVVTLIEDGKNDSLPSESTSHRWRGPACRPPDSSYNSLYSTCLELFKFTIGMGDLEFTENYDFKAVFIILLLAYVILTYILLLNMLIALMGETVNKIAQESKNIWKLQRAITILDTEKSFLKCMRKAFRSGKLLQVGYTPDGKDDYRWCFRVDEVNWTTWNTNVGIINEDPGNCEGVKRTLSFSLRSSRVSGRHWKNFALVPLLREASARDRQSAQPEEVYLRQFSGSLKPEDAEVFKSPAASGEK
Method in brief: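 Inhibition of [3H]resiniferatoxin binding measured on HEK293-hVR1 membranes over 60 min at 37 C, pH 7.4 HEPES buffer containing BSA. Pellet radioactivity counted; 200 nM cold RTX gave nonspecific binding. % inhibition computed and Ki derived from duplicate measurements.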

human VR1 [2] = target: T1, human VR1; test: Human VR1 functional assay (FLIPR intracellular Ca2+); assay type: cell-based; conditions: for Emax at 6 µM / % Response Relative to EC80 of Capsaicin (12 μM) / Emax at 12 µM: agonist response; for Emax at 6 µM: read-out: % Response Relative to EC80 of Capsaicin (6 μM); for inhibition at 1 µM / h % I (5 μM) / inhibition at 5 µM / h % I (10 μM): inhibition of capsaicin response; for inhibition at 1 µM: read-out: h % I (1 μM); for Emax at 12 µM: read-out: % Response Relative to EC80 of Capsaicin (12 μM); for IC50: antagonism of capsaicin-induced Ca2+ increase, read-out: h IC50; for inhibition at 5 µM: read-out: h % I (5 μM)
Method in brief: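 Read-out was Ca2+-dye fluorescence by FLIPR: compounds at varying concentrations were added to dye-loaded human VR1 HEK293 cells and monitored 5 min before capsaicin addition ([…], approx. EC80). Dose-response data, averaged over four wells, gave EC50 or IC50.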

Ki (human VR1 [1]): 68 nM
Emax at 6 µM (human VR1 [2]): 96%
inhibition at 1 µM (human VR1 [2]): 87%
SMILES: CC(C)(C)c1ccc(CCC(=O)Nc2ccc(-c3ccccc3O)c(F)c2)cc1 [Cpd 100]

h Binding % I (1 μM) (human VR1 [1]): 6%
h % I (5 μM) (human VR1 [2]): 11%
SMILES: CC(=O)Nc1cccc(-c2ccc(NC(=O)CCc3ccc(C(C)(C)C)cc3)c3ccccc23)c1 [Cpd 81]

Ki (human VR1 [1]): 50 nM
Emax at 6 µM (human VR1 [2]): 71%
inhibition at 1 µM (human VR1 [2]): 95%
SMILES: CC(C)(C)c1ccc(CCC(=O)Nc2ccc(-c3ccc(O)cc3)c(F)c2)cc1 [Cpd 101]

h Binding % I (1 μM) (human VR1 [1]): 1%
% Response Relative to EC80 of Capsaicin (12 μM) (human VR1 [2]): 73%
SMILES: NC(=O)c1cccc(-c2ccc(NC(=O)CCc3ccc(C(F)(F)F)cc3)cn2)c1 [Cpd 144]

Ki (human VR1 [1]): 266 nM
inhibition at 1 µM (human VR1 [1]): 66%
Emax at 12 µM (human VR1 [2]): 84%
SMILES: CC(=O)Nc1cccc(-c2ccc(NC(=O)CCc3ccc(C(C)(C)C)cc3)cc2F)c1 [Cpd 57]

Ki (human VR1 [1]): 5.9 nM
IC50 (human VR1 [2]): 62.7 nM
inhibition at 1 µM (human VR1 [2]): 101%
inhibition at 5 µM (human VR1 [2]): 100%
SMILES: CC(C)(C)c1ccc(CCC(=O)Nc2ccc(-n3cnc(Cl)c3Cl)c(C(F)(F)F)c2)cc1 [Cpd 212, 3-(4-tert-Butyl-phenyl)-N-[4-(4,5-dichloro-imidazol-1-yl)-3-trifluoromethyl-phenyl]-propionamide]

Ki (human VR1 [1]): 4620 nM
inhibition at 1 µM (human VR1 [1]): 55%
Emax at 12 µM (human VR1 [2]): 53%
SMILES: CC(C)(C)c1ccc(CCC(=O)Nc2ccc(-c3cccc(Cl)c3)cc2)cc1 [Cpd 14]

Ki (human VR1 [1]): 2110 nM
IC50 (human VR1 [2]): 400 nM
inhibition at 1 µM (human VR1 [2]): 76%
SMILES: O=C(CCc1ccc(Cl)cc1)Nc1ccc(-n2ccnc2)c(C(F)(F)F)c1 [Cpd 242]

h Binding % I (1 μM) (human VR1 [1]): 1%
% Response Relative to EC80 of Capsaicin (12 μM) (human VR1 [2]): 45%
SMILES: CC(C)(C)c1ccc(CCC(=O)Nc2cccc(-c3cccc(CO)c3)c2)cc1 [Cpd 21]

Ki (human VR1 [1]): 84.4 nM
inhibition at 5 µM (human VR1 [2]): 67%
SMILES: O=C(CCc1ccc(C(F)(F)F)cc1)Nc1ccc(-n2cnc(Cl)c2Cl)cc1 [Cpd 263]

inhibition at 1 µM (human VR1 [1]): 1%
IC50 (human VR1 [2]): 3950 nM
SMILES: CC(C)(C)c1ccc(CCC(=O)Nc2ccccc2-c2cccnc2)cc1 [Cpd 105]

h Binding % I (1 μM) (human VR1 [1]): 41%
% Response Relative to EC80 of Capsaicin (12 μM) (human VR1 [2]): 74%
SMILES: CC(C)(C)c1ccc(CCC(=O)Nc2ccc(-c3cccc(NS(C)(=O)=O)c3)cc2)cc1 [Cpd 40]

Ki (human VR1 [1]): 52 nM
inhibition at 1 µM (human VR1 [1]): 97%
Emax at 12 µM (human VR1 [2]): 102%
EC50 (human VR1 [2]; agonist-induced Ca2+ increase, read-out: h EC50): 289 nM
SMILES: CC(C)(C)c1ccc(CCC(=O)Nc2ccc(-c3cccc(NC(N)=O)c3)cc2)cc1 [Cpd 44]

h Binding % I (1 μM) (human VR1 [1]): 3%
h % I (5 μM) (human VR1 [2]): 19%
SMILES: CC(C)(C)c1ccc(CCC(=O)Nc2ccc(-c3nn[nH]n3)cc2)cc1 [Cpd 199]

Ki (human VR1 [1]): 7.4 nM
IC50 (human VR1 [2]): 74.3 nM
inhibition at 5 µM (human VR1 [2]): 100%
SMILES: Cc1cc(NC(=O)CCc2ccc(C(C)(C)C)cc2)cnc1-n1cnc(Cl)c1Cl [Cpd 215]

Ki (human VR1 [1]): 82.6 nM
IC50 (human VR1 [2]): 142 nM
h % I (5 μM) (human VR1 [2]): 100%
SMILES: O=C(CCc1ccc(C(F)(F)F)cc1)Nc1ccc(-c2ccc(CO)cc2)c(C(F)(F)F)c1 [Cpd 223]

Ki (human VR1 [1]): 99.2 nM
IC50 (human VR1 [2]): 195 nM
inhibition at 5 µM (human VR1 [2]): 100%
SMILES: O=C(CCc1ccc(C(F)(F)F)cc1)Nc1ccc(-c2ccc(O)cc2)c(C(F)(F)F)c1 [Cpd 229]

inhibition at 1 µM (human VR1 [1]): 101%
IC50 (human VR1 [2]): 27 nM
inhibition at 5 µM (human VR1 [2]): 96%
SMILES: Cc1cc(NC(=O)CCc2ccc(C(C)(C)C)cc2)cnc1-c1ccccc1O [Cpd 160, 3-(4-tert-butyl-phenyl)-N-[6-(2-hydroxy-phenyl)-5-methyl-pyridin-3-yl]-propionamide]

h Binding % I (1 μM) (human VR1 [1]): 1%
h % I (10 μM) (human VR1 [2]): 8%
SMILES: CC(C)(C)c1ccc(CCC(=O)Nc2ccc(-c3cccc(O)c3)c(C(=O)O)c2)cc1 [Cpd 74]

Ki (human VR1 [1]): 371 nM
IC50 (human VR1 [2]): 543 nM
inhibition at 5 µM (human VR1 [2]): 105%
SMILES: Cc1cc(NC(=O)CCc2ccc(C(C)(C)C)cc2)cnc1-c1cccc(C#N)c1 [Cpd 246]

h Binding % I (1 μM) (human VR1 [1]): 35%
h % I (10 μM) (human VR1 [2]): 35%
SMILES: CC(=O)c1cccc(-c2ccc(NC(=O)CCc3ccc(C(C)(C)C)cc3)cc2)c1 [Cpd 13]

h Binding % I (1 μM) (human VR1 [1]): 1%
h % I (10 μM) (human VR1 [2]): 20%
SMILES: CC(=O)Nc1cccc(-c2ccc(NC(=O)CCc3ccc(C(C)(C)C)cc3)cc2C(=O)O)c1 [Cpd 73]

h Binding % I (1 μM) (human VR1 [1]): 34%
% Response Relative to EC80 of Capsaicin (12 μM) (human VR1 [2]): 58%
SMILES: CC(C)(C)c1ccc(CCC(=O)Nc2ccc(-c3ncccc3O)cc2)cc1 [Cpd 115]

h Binding % I (1 μM) (human VR1 [1]): 1%
h % I (10 μM) (human VR1 [2]): 45%
SMILES: CC(C)(C)c1ccc(CCC(=O)Nc2ccccc2-c2ccc(O)cc2)cc1 [Cpd 1]

Ki (human VR1 [1]): 55 nM
Emax at 6 µM (human VR1 [2]): 97%
inhibition at 1 µM (human VR1 [2]): 80%
SMILES: CC(C)(C)c1ccc(CCC(=O)Nc2ccc(-c3ccncc3)c(F)c2)cc1 [Cpd 182]
